Measured values as given in US20260130885A1, “ANTIMICROBIAL COMPOSITIONS, PHARMACEUTICAL COMPOSITIONS AND USE THEREOF” (priority 2022, published 2026).
Values after ≈ are worked out from the molar mass of the structure shown. Read-outs that look alike come from different tables or passages of the source.

Assays:
MRSA ATCC33591 = experiment: Antibacterial activity assay (MIC, broth microdilution); assay type: cell-based, Staphylococcus aureus; conditions: for MIC: Staphylococcus aureus
MRSA ATCC33592 = experiment: as above; assay type: cell-based, Staphylococcus aureus; conditions: for MIC: Staphylococcus aureus
MRSA ATCC43300 = experiment: as above; assay type: cell-based, Staphylococcus aureus; conditions: for MIC: Staphylococcus aureus
[1] = test system: antibiotic-resistant Staphylococcus aureus; experiment: MIC against all strains of Table 4; assay type: cell-based; conditions: agent alone, all the bacterial strains under the examination
Description: The antimicrobial activity was based on MIC and MBC; MIC is the minimum inhibitory concentration and MBC is the minimum bactericidal concentration. The MIC of individual test agents against MRSA USA300 strains was determined using the broth microdilution method according to CLSI guidelines. Briefly, overnight bacterial cultures in LB medium were diluted 1:50 in fresh LB medium and incubated at 37° C. until reaching an OD600 of 0.5 to 0.6. Bacterial suspensions were diluted to a final concentration of 5×10^5 cfu/mL in fresh CAMHB and then exposed to each test agent at increasing doses in triplicate in 96-well plates for 24 hours at 37° C. The MIC of each agent was defined as the lowest concentration without visible bacterial growth. […] The lowest broth dilution that had no viable bacteria was considered the MBC.
Then, the combination effect was measured by calculating their corresponding fractional inhibitory concentration index (FICI) with the equation ΣFIC (FICi)=FICA+FICB=(CombA/MICA)+(CombB/MICB), where MICA and MICB are the MICs of drugs A and B alone, respectively, and CombA and CombB are the concentrations of drugs A and B in combination, respectively. […]
The antibacterial activity of the SC5005-DHA composition against a series of antibiotic-resistant Staphylococcus aureus was analyzed, and the results are shown in Table 4.

[2] = Antiproliferation assay (MTT); assay type: cell-based; conditions: human, read-out: CC50 of SC5005
From the text: The murine macrophage cell line RAW264.7 (BCRC) and human cervical epithelioid carcinoma cell line HeLa (BCRC) were maintained in Dulbecco's modified Eagle's medium (DMEM; Gibco-BRL) supplemented with 10% heat-inactivated FBS (Gibco-BRL). The human embryonic kidney cell line HEK-293 (BCRC) and the immortalized nontumorigenic keratinocyte cell line HaCaT (obtained from Dr. Yung-Chiy Chang, National Taiwan University, Taiwan) were maintained in Roswell Park Memorial Institute (RPMI; Gibco-BRL) medium supplemented with 10% heat-inactivated FBS. Cells were cultured in T-75 flasks at 37° C. in a 5% CO2 atmosphere.
The effects of SC5005 and DHA on the viability of mammalian cells were assessed using a 3-(4,5-dimethylthiazol-2-yl)-2,5-diphenyl-2H-tetrazolium bromide (MTT) assay in six replicates per treatment group. Briefly, cells were seeded into 96-well, flat-bottomed plates at 10^4 cells/well, cultured for 24 hours, and then exposed to SC5005 at concentrations ranging from 5-30 mg/L or the combination of SC5005 with designated concentrations of DHA for 24 hours. Controls were treated with DMSO and ethanol vehicles at concentrations equal to those for drug-treated cells. At the end of treatments, the medium was replaced with 0.5 g/L MTT-containing culture medium, and the cells were incubated in a CO2 incubator at 37° C. for an additional 1.5 hours. Supernatants were removed from the wells, and the reduced MTT dye was solubilized in DMSO followed by measuring the absorbance at 570 nm of each well using a VersaMax microplate reader (Molecular Devices, USA).

[3] = test system: Staphylococcus aureus NCTC8325; experiment: Time-kill kinetics (cfu assay); assay type: cell-based; conditions: SC5005 4×MIC, 1 mg/L; FIG. 1
Description: (§1) The number of viable bacteria in broth after each exposure period was enumerated by a cfu assay and expressed as cfu/mL; the data shown are the mean±SD (standard deviation) of independent experiments. […] The number of viable bacteria in the broth after each exposure period was calculated by a cfu assay (cfu/mL); the data are shown as the mean±SD of three independent experiments (n=3 for each group). Since the standard deviation of each point is very small, the error line is not shown in each graph. The horizontal dashed line in the upper left graph and the upper right graph represents […] of the bacterial cells killed. In addition, the blank controls in FIG. 1 are shown as filled diamonds.
(§2) In this experiment, the inventor analyzed the time-kill kinetics of SC5005, DHA, and a combination thereof against Staphylococcus aureus NCTC8325 and MRSA USA300, and the results are shown in FIG. 1. It can be seen in FIG. 1 that SC5005 killed more than 99.9% of the bacteria within 24 hours. […] Besides, it is well known in the art that Staphylococcus aureus can enter a dormant state (i.e., become the so-called persister cells) and develop resistance to antibiotic treatment, thus leading to repeated bacterial infections.

MRSA USA300 = experiment: Time-kill kinetics (cfu assay); assay type: cell-based, Staphylococcus aureus; conditions: SC5005 4×MIC, 1 mg/L; FIG. 1
Description: as §1, §2

[4] = test system: MRSA USA300 persister cells; experiment: Persister killing assay; assay type: cell-based, Staphylococcus aureus; conditions: SC5005 16×MIC, 4 mg/L; FIG. 1
Description: as §1
(§3) Bacteria were collected by centrifugation at 4000×g for 10 min at 4° C., washed with ice-cold PBS, and suspended in PBS with test agents. Controls received DMSO and ethanol vehicles at concentrations equal to those for drug-treated bacteria. At the designated times, the number of viable bacteria was assessed by serial dilution of a 100 μL aliquot bacterial suspension in PBS and then spread onto LB agar plates. After incubation at 37° C. for 18-24 hours, the number of colonies was counted and expressed as cfu/mL.

[5] = test system: S. aureus NCTC8325 persister cells; experiment: Persister killing assay; assay type: cell-based, Staphylococcus aureus; conditions: SC5005 16×MIC, 4 mg/L; FIG. 1
Description: as §1, §3

MIC (MRSA ATCC33591; +8 mg/L DHA): 0.061 ng/mL (≈ 0.000117 µM) | MIC (MRSA ATCC33591; agent alone): 250 ng/mL (≈ 0.479 µM) | MIC (MRSA ATCC33592; +8 mg/L DHA): 0.00049 µg/mL (≈ 0.000939 µM) | MIC (MRSA ATCC33592; agent alone): 0.25 µg/mL (≈ 0.479 µM) | MIC (MRSA ATCC43300; +8 mg/L DHA): 0.00024 µg/mL (≈ 0.00046 µM) | MIC (MRSA ATCC43300; agent alone): 0.25 µg/mL (≈ 0.479 µM) | MIC [1]: 0.25 µg/mL
Structure (SMILES): O=C(Nc1ccc(Cl)c(C(F)(F)F)c1)C(CCCl)C(=O)Nc1ccc(Cl)c(C(F)(F)F)c1 [SC5005]
combination effect (MRSA ATCC33591; MIC, +8 mg/L DHA): (Syn) (Synergy (Syn) was defined as an FICI≤0.5) | combination effect (MRSA ATCC33592; MIC, +8 mg/L DHA): (Syn) (Synergy (Syn) was defined as an FICI≤0.5) | combination effect (MRSA ATCC43300; MIC, +8 mg/L DHA): (Syn) (Synergy (Syn) was defined as an FICI≤0.5) | CC50 at 24 h ([2]; HEK-293 cells, DHA 0 mg/L): 14.1 ± 1.4 µg/mL | CC50 at 24 h ([2]; HEK-293 cells, DHA 4 mg/L): 15.6 ± 0.6 µg/mL | CC50 at 24 h ([2]; HEK-293 cells, DHA 8 mg/L): 14.9 ± 1.6 µg/mL | CC50 at 24 h ([2]; HEK-293 cells, DHA 16 mg/L): 14 ± 0.8 µg/mL | CC50 at 24 h ([2]; HaCaT keratinocyte cells, DHA 0 mg/L): 18 ± 1.7 µg/mL | CC50 at 24 h ([2]; HaCaT keratinocyte cells, DHA 4 mg/L): 19.5 ± 1.7 µg/mL | CC50 at 24 h ([2]; HaCaT keratinocyte cells, DHA 8 mg/L): 20.5 ± 0.3 µg/mL | CC50 at 24 h ([2]; HaCaT keratinocyte cells, DHA 16 mg/L): 18.1 ± 1.6 µg/mL | CC50 at 24 h ([2]; HeLa cells, DHA 0 mg/L): 22.5 ± 0.7 µg/mL | CC50 at 24 h ([2]; HeLa cells, DHA 4 mg/L): 24.2 ± 3.6 µg/mL | CC50 at 24 h ([2]; HeLa cells, DHA 8 mg/L): 21.9 ± 1.6 µg/mL | CC50 at 24 h ([2]; HeLa cells, DHA 16 mg/L): 21.4 ± 1.4 µg/mL | bacteria killed within 24 hours [3]: more than 99.9% | bacteria killed within 24 hours (MRSA USA300): more than 99.9% | time to eradication of persister cells [4]: ≤ 24 h | time to eradication of persister cells [5]: ≤ 24 h
